Like-named read-outs stand apart in the source and are kept apart here.
Legend:
[1] = test system: T-Rex 293 cell line SC3 cells having increased expression of androgen receptor protein; assay: Cellular growth inhibition, T-Rex 293 SC3 cells with increased androgen receptor expression (doxycycline), CellTiter-Glo; format: cell-based
Method: (§1) The following types of cells were prepared for this experiment: (i) a T-Rex 293 cell line having increased expression of androgen receptor protein due to exposure to doxycycline and (ii) a T-Rex 293 cell line lacking increased expression of androgen receptor protein. Ability of the test compounds to inhibit proliferation of the foregoing cell types was evaluated according to the procedures set forth below.
(§2) The doxycycline-inducible androgen receptor protein expressing cell line was established using the following protocol: T-Rex 293 cells were purchased from Invitrogen (Cat #R71007) and transfected using Lipofectamine 2000 with the wild-type androgen receptor protein sequence cloned into the pcDNA4/TO vector. Transfected cells were selected using 400 μg/mL Zeocin (Invitrogen Cat #R25001). Following selection, single clones were raised and maintained in Dulbecco's Modified Eagle Medium (DMEM) supplemented with 10% w/w Tetracycline-free fetal bovine serum (FBS) and 250 μg/mL Zeocin. Clones were analyzed for expression of androgen receptor protein in the presence and absence of 10 ng/ml doxycycline (Sigma Cat #D9891), and a single doxycycline-inducible clone (hereinafter “SC3”) was selected for use in downstream assays.
(§3) The SC3 cells were seeded on poly-D-lysine coated, black clear-bottom 384-well plates at 2500/well, in 25 μL Phenol Red Free Dulbecco's Modified Eagle Medium (DMEM) supplemented with 10% w/w charcoal-dextran treated fetal bovine serum (FBS) and 1% w/w pen-strep, with or without 10 ng/mL doxycycline. Pen-Strep is a commercially available mixture of penicillin G and streptomycin, which is used in mammalian cell culture media to prevent bacterial contamination. Phenol Red Free Dulbecco's Modified Eagle Medium (DMEM) supplemented with 10% w/w charcoal-dextran treated fetal bovine serum (FBS) and 1% w/w pen-strep, with or without 10 ng/mL doxycycline is herein referred to as Treatment Medium. Following seeding of cells in the plates, the plates were spun at 300×g for 30 seconds, then equilibrated to room temperature for 30 minutes, and then deposited in a humidified tissue culture incubator maintained at 37° C. with 5% CO2.
(§4) At 24 hours after seeding of the cells, dilutions of test compound were prepared in DMSO and dissolved in Treatment Medium, to achieve a final DMSO concentration of 0.5% w/w, thereby providing the Test Compound Solution. A 25 μL aliquot of the Test Compound Solution was added to cells in the well plates. An equal volume of a solution containing DMSO and Treatment Medium was used as a negative control. Following treatment of cells with Test Compound Solution or said equal volume of a solution containing DMSO and Treatment Medium, the plates were spun at 300×g for 30 seconds, and then left in an incubator for 72 hours.
(§5) At the end of the treatment duration, cell viability was quantified with CellTiter-Glo 2.0 reagent (Promega Cat #G9243). For this purpose, plates were equilibrated to room temperature for 30 minutes, and then 25 μL of CellTiter-Glo 2.0 reagent was added to cells in the plate wells. Plates were then agitated on a shaker for two minutes at 500 rpm and subsequently incubated at room temperature for 10 minutes. Following incubation, the plates were spun at 3000×g for 30 seconds, then sealed with an optical adhesive cover, and luminescence readings were measured with an EnVision Plate Reader.
(§6) Data was normalized using zero luminescence for baseline. A four-parameter non-linear regression curve fit was applied to dose-response data in GraphPad Prism data analysis software to determine the half-maximal growth inhibitory concentration (GI50) for each test compound.

[2] = test system: T-Rex 293 cell line SC3 cells lacking increased expression of androgen receptor protein; assay: Cellular growth inhibition, T-Rex 293 SC3 cells lacking increased androgen receptor expression (no doxycycline), CellTiter-Glo; format: cell-based
Method: as §1, §2, §3, §4, §5, §6

VCaP cells = assay: Cellular growth inhibition assay for VCaP cells, CellTiter-Glo; format: cell-based, human
Method: VCaP cells were purchased from American Type Cell Culture (ATCC Cat #CRL2876) and then seeded on poly-D-lysine coated, black clear-bottom 384-well plates at 5000/well in 25 μL Dulbecco's Modified Eagle Medium (DMEM) supplemented with 10% w/w Fetal bovine serum (FBS) and 1% w/w Pen-Strep. Pen-Strep is a commercially available mixture of penicillin G and streptomycin, which is used in mammalian cell culture media to prevent bacterial contamination. Dulbecco's Modified Eagle Medium (DMEM) supplemented with 10% w/w fetal bovine serum (FBS) and 1% w/w Pen-Strep is herein referred to as Treatment Medium. Following seeding of cells in the plates, the plates were spun at 300×g for 30 seconds, then equilibrated to room temperature for 30 minutes, and then deposited in a humidified tissue culture incubator maintained at 37° C. with 5% CO2.
as §4, §5, §6

[3] = T-Rex 293 SC3 cells with increased androgen receptor expression (exposed to 10 ng/mL doxycycline), 72 hours, CellTiter-Glo, read-out: GI50
[4] = T-Rex 293 SC3 cells lacking increased androgen receptor expression (not exposed to doxycycline), 72 hours, CellTiter-Glo, read-out: GI50
[5] = Homo sapiens, VCaP cells, 72 hours, CellTiter-Glo, read-out: GI50
[6] = VCaP cells, 72 hours, CellTiter-Glo, read-out: GI50

Row | Compound | GI50 [1, 3] [nM] | GI50 [2, 4] [nM] | GI50 (VCaP cells; [5]) [nM] | GI50 (VCaP cells; [6]) [nM] | GI50 ([1]; 72 h) [nM] | GI50 (VCaP cells; Homo sapiens, VCaP, 72 h) [nM] | GI50 ([2]; 72 h) [nM]
1 | CCS(=O)(=O)Nc1ccc(Oc2cccc(OCCOCCOCCOCCOCCOCCOCCOC3CCN(c4ccc(C(=O)N[C@H]5CC[C@H](Oc6ccc(C#N)c(Cl)c6)CC5)nn4)CC3)c2)c(-c2cn(C)c(=O)c3[nH]ccc23)c1 [I-4, N-[4-(3-chloro-4-cyano-phenoxy)cyclohexyl]-6-[4-[2-[2-[2-[2-[2-[2-[2-[3-[4-(ethylsulfonylamino)-2-(6-methyl-7-oxo-1H-pyrrolo[2,3-c]pyridin-4-yl)phenoxy]phenoxy]ethoxy]ethoxy]ethoxy]ethoxy]ethoxy]ethoxy]ethoxy]-1-piperidyl]pyridazine-3-carboxamide] | < 500 | 1500 to 3000 | – | – | – | – | –
2 | CCS(=O)(=O)Nc1ccc(Oc2cccc(OCCOC3CCN(c4ncc(C(=O)N[C@H]5CC[C@H](Oc6ccc(C#N)c(Cl)c6)CC5)cn4)CC3)c2)c(-c2cn(C)c(=O)c3[nH]ccc23)c1 [I-5, N-[4-(3-chloro-4-cyano-phenoxy)cyclohexyl]-2-[4-[2-[3-[4-(ethylsulfonylamino)-2-(6-methyl-7-oxo-1H-pyrrolo[2,3-c]pyridin-4-yl)phenoxy]phenoxy]ethoxy]-1-piperidyl]pyrimidine-5-carboxamide] | < 500 | 500 to 1500 | < 500 | – | – | – | –
3 | CCS(=O)(=O)Nc1ccc(Oc2cccc(CCOC3CCN(c4ccc(C(=O)N[C@H]5CC[C@H](Oc6ccc(C#N)c(Cl)c6)CC5)nn4)CC3)c2F)c(-c2cn(C)c(=O)c3[nH]ccc23)c1 [I-11] | < 500 | < 500 | < 500 | – | – | – | –
4 | CCS(=O)(=O)Nc1ccc(Oc2cccc(CCCN3CCN(c4ccc(C(=O)N[C@H]5CC[C@H](Oc6ccc(C#N)c(Cl)c6)CC5)nn4)CC3)c2F)c(-c2cn(C)c(=O)c3[nH]ccc23)c1 [I-13] | < 500 | < 500 | < 500 | – | – | – | –
5 | CCS(=O)(=O)Nc1ccc(Oc2cccc(OCCN3CCN(c4ccc(C(=O)N[C@H]5CC[C@H](Oc6ccc(C#N)c(Cl)c6)CC5)nn4)CC3)c2F)c(-c2cn(C)c(=O)c3[nH]ccc23)c1 [I-14] | < 500 | < 500 | < 500 | – | – | – | –
6 | CCS(=O)(=O)Nc1ccc(Oc2cccc(OCCOC3CCN(c4ccc(C(=O)N[C@H]5CC[C@H](Oc6ccc(C#N)c(Cl)c6)CC5)nn4)CC3)c2F)c(-c2cn(C)c(=O)c3[nH]ccc23)c1 [I-16] | < 500 | < 500 | < 500 | – | – | – | –
7 | Cn1cc(-c2cc(NS(=O)(=O)CC(F)(F)F)ccc2Oc2cccc(OCCOC3CCN(c4ccc(C(=O)N[C@H]5CC[C@H](Oc6ccc(C#N)c(Cl)c6)CC5)nn4)CC3)c2F)c2cc[nH]c2c1=O [I-17] | < 500 | < 500 | < 500 | – | – | – | –
8 | CCS(=O)(=O)Nc1ccc(Oc2cccc(OCCCC3CCN(c4ccc(C(=O)NC5CCC(Oc6ccc(C#N)c(Cl)c6)CC5)nn4)CC3)c2F)c(-c2cn(C)c(=O)c3[nH]ccc23)c1 (stereo not drawn) [I-18] | < 500 | < 500 | < 500 | – | – | – | –
9 | CCS(=O)(=O)Cc1ccc(Oc2cccc(OCCOC3CCN(c4ccc(C(=O)N[C@H]5CC[C@H](Oc6ccc(C#N)c(Cl)c6)CC5)nn4)CC3)c2F)c(-c2cn(C)c(=O)c3[nH]ccc23)c1 [I-22] | < 500 | < 500 | < 500 | – | – | – | –
10 | CCS(=O)(=O)c1ccc(Oc2cccc(OCCOC3CCN(c4ccc(C(=O)N[C@H]5CC[C@H](Oc6ccc(C#N)c(Cl)c6)CC5)nn4)CC3)c2F)c(-c2cn(C)c(=O)c3[nH]ccc23)c1 [I-23] | < 500 | < 500 | < 500 | – | – | – | –
11 | Cn1cc(-c2cc(NS(=O)(=O)C(F)(F)F)ccc2Oc2cccc(OCCOC3CCN(c4ccc(C(=O)N[C@H]5CC[C@H](Oc6ccc(C#N)c(Cl)c6)CC5)nn4)CC3)c2F)c2cc[nH]c2c1=O [I-24] | 500 to 1500 | > 3000 | 1500 to 3000 | – | – | – | –
12 | CCS(=O)(=O)c1ccc(Oc2cccc(CCCOC3CCN(c4ccc(C(=O)N[C@H]5CC[C@H](Oc6ccc(C#N)c(Cl)c6)CC5)nn4)CC3)c2F)c(-c2cn(C)c(=O)c3[nH]ccc23)c1 [I-27] | < 500 | < 500 | < 500 | – | – | – | –
13 | CCS(=O)(=O)Nc1ccc(Oc2cccc(OCCOC3CCN(c4cnc(C(=O)N[C@H]5CC[C@H](Oc6ccc(C#N)c(Cl)c6)CC5)cn4)CC3)c2F)c(-c2cn(C)c(=O)c3[nH]ccc23)c1 [I-31] | < 500 | < 500 | < 500 | – | – | – | –
14 | CCS(=O)(=O)c1ccc(Oc2cccc(OCCOC3CCN(c4cnc(C(=O)N[C@H]5CC[C@H](Oc6ccc(C#N)c(Cl)c6)CC5)cn4)CC3)c2F)c(-c2cn(C)c(=O)c3[nH]ccc23)c1 [I-32] | < 500 | < 500 | < 500 | – | – | – | –
15 | CCS(=O)(=O)Nc1ccc(Oc2ccc(OCCOC3CCN(c4ccc(C(=O)N[C@H]5CC[C@H](Oc6ccc(C#N)c(Cl)c6)CC5)nn4)CC3)cc2)c(-c2cn(C)c(=O)c3[nH]ccc23)c1 [I-34] | < 500 | < 500 | – | < 500 | – | – | –
16 | CCS(=O)(=O)Nc1ccc(Oc2cccc(CCCOC3CCN(c4ccc(C(=O)N[C@H]5CC[C@H](Oc6ccc(C#N)c(Cl)c6)CC5)nn4)CC3)c2F)c(-c2cn(C)c(=O)c3[nH]ccc23)c1 [I-37, N-[4-(3-chloro-4-cyano-phenoxy)cyclohexyl]-6-[4-[3-[3-[4-(ethylsulfonylamino)-2-(6-methyl-7-oxo-1H-pyrrolo[2,3-c]pyridin-4-yl)phenoxy]-2-fluoro-phenyl]propoxy]-1-piperidyl]pyridazine-3-carboxamide] | – | – | – | – | < 500 | < 500 | < 500
17 | CCS(=O)(=O)Nc1ccc(Oc2cccc(CCC3CCN(c4ccc(C(=O)N[C@H]5CC[C@H](Oc6ccc(C#N)c(Cl)c6)CC5)nn4)CC3)c2)c(-c2cn(C)c(=O)c3[nH]ccc23)c1 [I-39] | < 500 | > 3000 | < 500 | – | – | – | –
18 | CCS(=O)(=O)c1ccc(Oc2ccc(CCC3CCN(c4ccc(C(=O)NC5CCC(Oc6ccc(C#N)c(Cl)c6)CC5)nn4)CC3)cc2F)c(-c2cn(C)c(=O)c3[nH]ccc23)c1 (stereo not drawn) [I-45, N-[4-(3-chloro-4-cyano-phenoxy)cyclohexyl]-6-[4-[2-[4-[4-ethylsulfonyl-2-(6-methyl-7-oxo-1H-pyrrolo[2,3-c]pyridin-4-yl)phenoxy]-3-fluoro-phenyl]ethyl]-1-piperidyl]pyridazine-3-carboxamide] | < 500 | < 500 | < 500 | – | – | – | –
19 | CCS(=O)(=O)c1ccc(Oc2cccc(CCCN3CCN(c4ccc(C(=O)N[C@H]5CC[C@H](Oc6ccc(C#N)c(Cl)c6)CC5)nn4)CC3)c2F)c(-c2cn(C)c(=O)c3[nH]ccc23)c1 [I-62] | < 500 | < 500 | – | < 500 | – | – | –
20 | CCS(=O)(=O)c1ccc(Oc2ccc(CCN3CC4(C3)CN(c3ccc(C(=O)N[C@H]5CC[C@H](Oc6ccc(C#N)c(Cl)c6)CC5)nn3)C4)cc2)c(-c2cn(C)c(=O)c3[nH]ccc23)c1 [I-63] | < 500 | < 500 | – | < 500 | – | – | –
21 | Cn1cc(-c2cc(C(C)(C)O)ccc2Oc2ccc(CCCCC3CCN(c4ccc(C(=O)N[C@H]5CC[C@H](Oc6ccc(C#N)c(Cl)c6)CC5)nn4)CC3)cc2)c2cc[nH]c2c1=O [I-125] | – | – | – | < 500 | – | – | –
